Laboratory results published in US6670459B2, “Process for the isolation of novel oligospirostanoside” (Zandu Pharmaceutical Works Ltd., priority 2002, dated 2003).
Read-outs that look alike come from different tables or passages of the source. Marks after values point to notes of the source that are not given here.

Assays:
immunecompromised mice [1] = type: in vivo
Description: (§1) 0 day: sensitization with 0.2 ml of 5×10^9 SRBC/ml i.p.
4th day: challenged with 20 μl of 5×10^9 SRBC/ml into right hind footpad for DTH reaction only.
(§2) SRBC: Sheep red blood cell.
(§3) 5th day: measurement of foot thickness/Haemagglutination antibody titre

immunecompromised mice [2] = type: in vivo; remark: listed apart in the source
Description: as §1, §2, §3

[3] = mice, 250 mg/kg p.o., day 5, n=12
[4] = immunecompromised mice, 0.0006 mg/kg p.o., days 0-4, day 5, n=12
[5] = immunecompromised mice, 0.0125 mg/kg p.o., days 0-4, day 5, n=12
[6] = oral, immunecompromised experimental animals, dose levels 0.0062-0.0125 mg Kg^-1
[7] = immunecompromised mice, 2.5 mg/kg p.o., days 0-4, day 5, n=12

Compound: Cyclodextrin [reference compound]
- DTH % change compared to control (immunecompromised mice [1]; [3]): 23* %
- DTH mean ± S.E. (immunecompromised mice [1]; [3]): 0.45 ± 0.24
- Antibody titre % change compared to control (immunecompromised mice [2]; [3]): 45* %
- Antibody titre mean ± S.E. (immunecompromised mice [2]; [3]): 3.60 ± 0.33

Compound: C[C@H]1CC[C@@]2(OC1)O[C@H]1C[C@H]3[C@@H]4CC[C@@H]5C[C@@H](O[C@@H]6O[C@H](CO)[C@@H](O[C@@H]7O[C@@H](C)[C@H](O)[C@@H](O)[C@H]7O[C@@H]7O[C@@H](C)[C@H](O)[C@@H](O)[C@H]7O)[C@H](O)[C@H]6O)CC[C@]5(C)[C@H]4CC[C@]3(C)[C@H]1[C@@H]2C [AR-Iv, 3-0-[α-L-rhamnopyranosyl-(1→2)-α-L-rhamnopyranosyl-(1→4)-0-β-D-glucopyranosyl]-25(S)-5β-spirostan-3β-ol]
- DTH % change compared to control (immunecompromised mice [1]; [4]): 78*** %
- DTH mean ± S.E. (immunecompromised mice [1]; [4]): 0.80 ± 0.14
- DTH % change compared to control (immunecompromised mice [1]; [5]): 102*** %
- DTH mean ± S.E. (immunecompromised mice [1]; [5]): 0.91 ± 0.42
- enhanced cell-mediated immune response (immunecompromised mice [1]; [6]): 77.77-102.22%
- Antibody titre % change compared to control (immunecompromised mice [2]; [4]): 56** %
- Antibody titre mean ± S.E. (immunecompromised mice [2]; [4]): 5.60 ± 0.33
- Antibody titre % change compared to control (immunecompromised mice [2]; [5]): 78*** %
- Antibody titre mean ± S.E. (immunecompromised mice [2]; [5]): 6.41 ± 0.16
- potentiated antibody synthesis (immunecompromised mice [2]; [6]): 55.55-69.44%

Compound: c1ccc([C@H]2CN3CCSC3=N2)cc1 [LEV, Levamisole, reference compound]
- DTH % change compared to control (immunecompromised mice [1]; [7]): 140*** %
- DTH mean ± S.E. (immunecompromised mice [1]; [7]): 1.08 ± 0.14
- Antibody titre % change compared to control (immunecompromised mice [2]; [7]): 89*** %
- Antibody titre mean ± S.E. (immunecompromised mice [2]; [7]): 6.80 ± 0.30
